Reference: article PMC7542351, “Construction of a new T7 promoter compatible Escherichia coli Nissle 1917 strain for recombinant production of heme-dependent proteins” (Microbial Cell Factories, 2020)

Target: T1, Cph1 (Synechocystis sp. PCC 6803, UniProt Q55168)
T1 construct: His6 tag; ~80 kDa; pET-cph1; co-produced with HO1 and PcyA in E. coli; cell-free lysate
Experiment: red/far-red induced difference spectroscopy of holo-phytochrome
Type: biochemical
Settings: cell-free lysate; pH 8.0, 25 °C; 630 nm / 730 nm light; PCB made in vivo by co-expressed HO1 and PcyA, and 40 µM PCB added; covalent

T1 sequence (Q55168 whole entry): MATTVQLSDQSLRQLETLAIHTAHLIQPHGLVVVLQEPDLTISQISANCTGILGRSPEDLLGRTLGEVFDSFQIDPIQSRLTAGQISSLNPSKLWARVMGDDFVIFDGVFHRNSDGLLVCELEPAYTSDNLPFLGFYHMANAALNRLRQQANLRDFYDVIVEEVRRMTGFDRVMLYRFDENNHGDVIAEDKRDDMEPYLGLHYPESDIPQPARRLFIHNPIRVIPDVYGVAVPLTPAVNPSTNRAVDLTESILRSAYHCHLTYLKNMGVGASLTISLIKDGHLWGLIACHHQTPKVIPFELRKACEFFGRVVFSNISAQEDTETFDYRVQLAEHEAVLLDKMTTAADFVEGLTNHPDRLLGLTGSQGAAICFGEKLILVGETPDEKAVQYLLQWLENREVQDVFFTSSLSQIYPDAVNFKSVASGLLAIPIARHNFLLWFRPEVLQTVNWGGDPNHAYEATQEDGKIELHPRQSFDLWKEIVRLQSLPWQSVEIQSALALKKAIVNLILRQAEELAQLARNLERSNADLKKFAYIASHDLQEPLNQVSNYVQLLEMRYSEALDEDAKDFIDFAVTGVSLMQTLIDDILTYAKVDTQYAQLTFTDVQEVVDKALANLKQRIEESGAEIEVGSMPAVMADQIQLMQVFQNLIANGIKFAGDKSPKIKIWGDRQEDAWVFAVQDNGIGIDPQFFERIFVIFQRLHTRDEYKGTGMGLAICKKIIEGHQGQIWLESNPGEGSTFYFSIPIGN

With `CC=C1C(=Cc2[nH]c(C=C3N=C(C=C4NC(=O)C(CC)=C4C)C(C)=C3CCC(=O)O)c(CCC(=O)O)c2C)NC(=O)C1C` (stereo not shown) [phycocyanobilin] the “red/far-red induced difference spectroscopy of holo-phytochrome” value was “Comparison of difference spectra before and after incubation with PCB indicated a higher saturation”.
